Values joined by “and” are separate entries in the source; they are usually repeats but may differ in a detail not shown here. Identical values can stand only once.
Target: T1, SGLT1 (Homo sapiens, UniProt P13866)
T1 construct: expressed in transfected cells
T1 sequence (P13866 1-664): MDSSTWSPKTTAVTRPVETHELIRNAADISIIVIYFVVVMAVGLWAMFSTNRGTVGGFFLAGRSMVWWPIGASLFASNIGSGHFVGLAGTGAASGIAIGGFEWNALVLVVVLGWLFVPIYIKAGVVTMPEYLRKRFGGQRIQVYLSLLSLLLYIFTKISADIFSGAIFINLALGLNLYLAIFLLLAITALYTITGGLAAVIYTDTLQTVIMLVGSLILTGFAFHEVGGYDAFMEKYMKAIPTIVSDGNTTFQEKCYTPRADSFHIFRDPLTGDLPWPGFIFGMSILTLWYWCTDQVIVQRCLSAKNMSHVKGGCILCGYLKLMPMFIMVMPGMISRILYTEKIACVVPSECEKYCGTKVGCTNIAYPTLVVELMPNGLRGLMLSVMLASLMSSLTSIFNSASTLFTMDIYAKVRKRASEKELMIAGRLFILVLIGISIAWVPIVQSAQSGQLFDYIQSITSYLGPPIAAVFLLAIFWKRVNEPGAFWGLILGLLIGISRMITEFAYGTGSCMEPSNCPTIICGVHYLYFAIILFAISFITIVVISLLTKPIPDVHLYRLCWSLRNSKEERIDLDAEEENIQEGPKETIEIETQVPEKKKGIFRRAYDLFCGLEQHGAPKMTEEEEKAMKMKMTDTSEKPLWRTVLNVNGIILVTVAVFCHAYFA
Assay: Inhibition of [14C]AMG uptake in SGLT1-overexpressing CHO cells
Assay type: cell-based
Details: IC50 (nM) SGLT1 mean ± SD (n = 3), 10 μM [14C]AMG, 2 h, 37° C.
Procedure: An SGLT1-overexpressing cell line (CHO-SGLT1 stable cells) and mock cells (CHO-mock cells) were cultured to reach 80% confluency, and then the cells were seeded in 96-well plates at 1×10^5 cells/well.
After 24 hours, the medium was removed, and a pre-incubation buffer [10 mM hydroxyethylpiperazine ethane sulfonic acid (HEPES), 5 mM Tris, 140 mM choline chloride, 2 mM KCl, 1 mM CaCl2), 1 mM MgCl2, pH 7.4] was added, and the cells were cultured for one hour.
After one hour, the pre-incubation buffer was removed, and an incubation buffer [10 mM HEPES, 5 mM Tris, 140 mM NaCl, 2 mM KCl, 1 mM CaCl2), 1 mM MgCl2, pH 7.4] containing 10 μM [^14C] methyl α-D-glucopyranoside (AMG), a substrate of SGLT1, and inhibitory evaluation substances at various concentrations was added and allowed to react in a thermo micro mixer at 37° C. for two hours.
After a preset time, the cells were washed twice with 200 μL of ice-cold washing buffer [10 mM HEPES, 5 mM Tris, 140 mM choline chloride, 2 mM KCl, 1 mM CaCl2), 1 mM MgCl2, 100 mM AMG, pH 7.4].
After removing the medium, 40 μL of 10% sodium dodecyl sulfate (SDS) solution was added to lyse the cells, and then the samples were transferred to a measurement plate of a liquid scintillation counter, and 150 μL of OptiPhase Supermix®, an isotope measurement cocktail solution, was added, and the cells were incubated overnight to ensure that the cell solution was homogeneously mixed with the cocktail solution.
[^14C]AMG in the samples was measured using the liquid scintillation counter.
At this time, the inhibitory effect Sigmoid Emax model was used, and the WinNonlin program (ver. 2.0) was utilized. All data values were expressed as the mean±standard deviation (SD) of three independent experiments.

| SMILES | IC50 |
| --- | --- |
| OC[C@H]1O[C@@H](c2cc(Cc3ccc(C4(O)CC4)cc3)c(Cl)c3c2CCO3)[C@H](O)[C@@H](O)[C@@H]1O [M2, (2S,3R,4R,5S,6R)-2-(7-chloro-6-(4-(1-hydroxycyclopropyl)benzyl)-2,3-dihydrobenzofuran-4-yl)-6-(hydroxymethyl)tetrahydro-2H-pyran-3,4,5-triol] | 1220 ± 165 nM |
| OC[C@H]1O[C@@H](c2cc(Cc3ccc(C4CC4)cc3)c(Cl)c3c2CCO3)[C@H](O)[C@@H](O)[C@@H]1O [Enavogliflozin, (2S,3R,4R,5S,6R)-2-(7-chloro-6 (4-cyclopropylbenzyl)-2,3-dihydrobenzofuran-4-yl)-6-(hydroxymethyl)tetrahydro-2H-pyran-3,4,5-triol] | 861 ± 59.4 nM |
| OC[C@H]1O[C@@H](c2cc(Cc3ccc(C4CC4)cc3)c(Cl)c3c2CC(O)O3)[C@H](O)[C@@H](O)[C@@H]1O (stereo partly drawn) [M1, (2S,3R,4R,5S,6R)-2-(7-chloro-6-(4-cyclopropylbenzyl)-2-hydroxy-2,3-dihydrobenzofuran-4-yl)-6-(hydroxymethyl)tetrahydro-2H-pyran-3,4,5-triol] | ~28.4 nM and 28.4 nM |

Source: patent US20260124170A1, “PHARMACEUTICAL COMPOSITION COMPRISING METABOLITE OF ENAVOGLIFLOZIN, AND USE THEREOF” (DAEWOONG PHARMACEUTICAL CO., LTD., priority 2022, published 2026)
